The subject of one series is retina. Conditions: cited from earlier work.
Another series relates to Brown Norway rats. Briefly: Electroretinography (a-wave) after verteporfin PDT in rats treated i.p. with agent. The format is in vivo, rat. Conditions: for A Wave Amplitude PDT Eye: ERG 3-4 hours after PDT; for A Wave Amplitude PDT Eye / A Wave Amplitude Control Eye: N 4; for A Wave Amplitude % Control: PDT eye vs control eye, * p ≦ 0.05 vs vehicle; for A Wave Amplitude Control Eye: eye not treated with PDT; for loss in retinal function induced by PDT: rats, i.p. 1 hour before PDT, a-wave amplitudes. How it is done: Brown Norway rats weighing 200-400 grams were treated intraperitoneally (i.p.) with either brimonidine, AGN 199960, or the saline vehicle. One hour later, the rats were unilaterally treated with PDT and evaluated by electroretinography 3-4 hours later. There were 4 rats in each treatment group.
PDT was conducted as follows: Mydriasis was induced in one eye of each rat with a drop of 0.5% tropicamide. Rats were then anesthetized with isoflurane and placed on a platform in front of a slit lamp coupled to a Coherent diode laser for verteporfin PDT (689 nm). Verteporfin was injected intravenously at a dose of 6 mg/m^2. […] Three to four hours later, the treated animals were again dilated and anesthetized, then electroretinograms (ERGs) were evaluated in each eye.
ERGs are collected non-invasively by measuring mass-cell response arising due to retinal activity proceeding from a light stimulus. The first cells stimulated by a flash light stimulation are the photoreceptors at the outer retinal layer. This response is measured as an a-wave. As the signal is transduced to inner retinal neurons, a b-wave is produced. The a-wave reflects activity in the photoreceptors and the b-wave reflects activity in both photoreceptors and bipolar cells.
Before being subjected to the ERG test, the rats were placed in the dark (dark-adapted) for 15 minutes. Two types of ERG apparatus were used to generate the results below. In the initial brimonidine experiment, each eye was evaluated separately. A Grass photostimulator was placed 10 cm from the recording eye and flashed a single white flash lasting 10 microseconds. A gold corneal ring electrode with a reference electrode attached to the lower eyelid detected retinal responses. For the AGN 199960 experiments, a Ganzfeld dome was used to generate a single flash and sensitive bipolar corneal electrodes were placed on both eyes, thus allowing simultaneous ERGs to be done. A cushioning agent on the cornea (methylcellulose) was used in each case, and the responses were amplified and stored in a computer. The results reported are a-wave amplitudes, which appear to be the ERG parameter most affected in clinical PDT. […] has the following structure: [drawing 3]

Series [1] relates to wet age-related macular degeneration patient. As to the method: A patient presents with “wet” age-related macular degeneration (ARMD) in the foveal region of the right eye, and their condition is found to be suitable for photodynamic therapy (PDT). For one week prior to the date of scheduled treatment, the patient is given a topical dosage of brimonidine twice a day in a standard formulation.
The day of scheduled PDT treatment, the patient is administered 6 mg/M^2 of verteporfin. Fifteen minutes after the start of the infusion, the patient is administered Irradiance of 600 mW/cm^2 and total fluence of 50 Joules/cm^2 from an Argon light laser.
Brimonidine administration is continued every two days throughout the 12 week evaluation period.
Evaluation of neural health is assayed 1 week, 4 weeks, and 12 weeks following treatment by visual inspection of the retina and test of visual acuity.

In the next series the test system is CNV. Conditions: FIG. 1B.

As to verteporfin [vertporfin], in the series on retina (about 6 mg/m^2, treatment necessary every few months), the “effect of PDT on vascular outgrowth and associated edema” value is “effective to slow vascular outgrowth and associated edema somewhat”. Also, the “retinal and optic nerve damage from PDT” value in the series on retina (high doses (12 and 18 mg/m^2)) is “long term or permanent scarring of the retina, chronic absence of photoreceptor cells, and optic nerve atrophy”.
Regarding `Brc1c(NC2=NCCN2)ccc2nccnc12` [Brimonidine], the “A Wave Amplitude PDT Eye” value in the series on Brown Norway rats (1000 ug/kg i.p. 1 hour prior to PDT, Grass photostimulator) worked out at 90 ± 15 uV. The “A Wave Amplitude % Control” value in the series on Brown Norway rats (1000 ug/kg i.p. 1 hour prior to PDT) is recorded as 103 ± 8* %. Further, the “A Wave Amplitude Control Eye” value in the series on Brown Norway rats (1000 ug/kg i.p., Grass photostimulator) stood at 91 ± 21 uV. The “post PDT decrease in retinal functionality” value with Brown Norway rats (FIG. 1A, compared to a saline control) was “inhibits”. The “loss in retinal function induced by PDT” value with Brown Norway rats was “inhibited”. In addition, the visual acuity entry in series [1] (4 and 12 weeks following treatment) is “no discernable loss of vision”. Moreover, the renewed neovascularization entry in series [1] (12 weeks following PDT treatment) is on record as “No evidence”. Besides, the “optic nerve axon loss” value in series [1] (monitoring period up to 12 weeks) is “no evidence”. The “Fluorescein angiography leakage in the treated tissue” value in series [1] (one week after PDT and throughout the monitoring period) was “minimal leakage”. For the same compound, in series [1] (topical twice a day one week before PDT, then every two days, 1 to 12 weeks after PDT), the “visual inspection of the retina (whitening, edema)” value is recorded as “healthy with no whitening”. Moreover, the “area of ablation of CNV following PDT” value with CNV is listed as “does not affect”.
`O=C1c2ccccc2CCC1Cc1c[nH]c(=S)[nH]1` (centres unmarked) [AGN 960]: the “A Wave Amplitude PDT Eye” value in the series on Brown Norway rats (300 ug/kg i.p. 1 hour prior to PDT, Ganzfeld dome) is recorded as 212 ± 16 uV. Further, in the series on Brown Norway rats (300 ug/kg i.p. 1 hour prior to PDT), the “A Wave Amplitude % Control” value is given as 101 ± 13* %. In the series with Brown Norway rats (300 ug/kg i.p., Ganzfeld dome), the “A Wave Amplitude Control Eye” value is on record as 218 ± 29 uV. Moreover, in the series with Brown Norway rats, the “loss in retinal function induced by PDT” value is recorded as “inhibited”.

These data come from patent publication US20020094998A1, “Methods and compositions for treatment of ocular neovascularization and neural injury” (priority 2000, published 2002).
